Each structure is given as a SMILES string.

Consider 14 compounds from patent publication US11524966B1 (Valo Early Discovery, Inc., priority 2017, dated 2022).

The target in the test is T1, USP28 (His-tagged USP28-FL-mammalian) (Homo sapiens, UniProt Q96RU2).
T1 construct: Expression of USP28 (1-1077)-TEV-6*His (pTT5 vector); made in house; host or cells: Expi293f cells (pTT5 vector)
T1 sequence (Q96RU2 1-1077): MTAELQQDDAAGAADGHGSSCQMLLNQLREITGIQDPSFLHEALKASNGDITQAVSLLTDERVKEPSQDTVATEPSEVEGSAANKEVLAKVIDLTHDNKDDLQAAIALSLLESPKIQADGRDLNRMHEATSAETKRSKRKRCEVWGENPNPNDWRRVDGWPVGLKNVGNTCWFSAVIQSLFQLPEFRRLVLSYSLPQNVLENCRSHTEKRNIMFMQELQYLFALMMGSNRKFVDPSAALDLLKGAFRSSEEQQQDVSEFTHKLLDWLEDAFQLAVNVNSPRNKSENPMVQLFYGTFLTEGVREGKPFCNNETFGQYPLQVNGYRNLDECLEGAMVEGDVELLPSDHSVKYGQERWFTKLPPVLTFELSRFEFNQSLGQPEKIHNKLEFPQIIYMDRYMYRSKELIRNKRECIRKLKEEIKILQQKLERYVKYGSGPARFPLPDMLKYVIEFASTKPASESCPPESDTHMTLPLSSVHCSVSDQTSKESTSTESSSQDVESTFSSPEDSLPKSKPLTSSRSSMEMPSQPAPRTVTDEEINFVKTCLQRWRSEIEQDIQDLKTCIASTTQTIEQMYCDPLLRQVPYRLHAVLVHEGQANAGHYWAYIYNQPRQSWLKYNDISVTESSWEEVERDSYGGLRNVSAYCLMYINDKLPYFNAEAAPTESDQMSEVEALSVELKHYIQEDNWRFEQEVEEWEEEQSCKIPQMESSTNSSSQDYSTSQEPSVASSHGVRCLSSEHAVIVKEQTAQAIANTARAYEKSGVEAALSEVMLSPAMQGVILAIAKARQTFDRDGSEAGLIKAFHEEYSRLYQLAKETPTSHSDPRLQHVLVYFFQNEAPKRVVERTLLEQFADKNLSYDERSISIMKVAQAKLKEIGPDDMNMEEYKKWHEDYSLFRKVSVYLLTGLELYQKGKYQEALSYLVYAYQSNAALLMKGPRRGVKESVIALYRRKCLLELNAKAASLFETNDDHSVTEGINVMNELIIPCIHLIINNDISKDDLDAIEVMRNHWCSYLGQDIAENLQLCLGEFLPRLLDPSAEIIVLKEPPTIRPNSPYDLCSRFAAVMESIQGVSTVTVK
The test is described as follows: Ubiquitin-Rhodamine 110 Assay for USP28 Activity, Example A-1(a). In kind it is biochemical. The settings on record: Ubiquitin-Rhodamine 110 assay, Example A-1(a); read-out: USP28 A-1(a) IC50 range. The method, boiled down: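 Full-length His-tagged USP28 (1-1077, Expi293F-expressed; […]) was preincubated 30 min with compound (25 μM–1.3 nM, 10-point 3-fold) in 20 mM Tris-HCl pH 8.0, 3 mM BME, 0.03% BGG, 0.01% Triton X-100. Ub-Rh110 (25 nM) was then added for 45 min at room temperature, stopped with citric acid, and read by fluorescence (485/535 nm).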

As a reminder, the IC50 is the concentration at which inhibition is half-maximal. For the compound `Cc1ccc2c(N)c(C(=O)N[C@H]3COc4cc(N5C[C@H]6CNC[C@@H]6C5)ccc4C3)sc2n1` [Example 43, 3-amino-N-((R)-7-((3aR,6aR)-hexahydropyrrolo[3,4-c]pyrrol-2(1H)-yl)chroman-3-yl)-6-methylthieno[2,3-b]pyridine-2-carboxamide], the IC50 lay within 200 to 2000 nM. As for `Cc1ccc2c(N)c(C(=O)N[C@@H]3COc4cc(N5C[C@H]6CNC[C@@H]6C5)ccc4C3)sc2n1` [Example 44, 3-amino-N-((S)-7-((3aR,6aR)-hexahydropyrrolo[3,4-c]pyrrol-2(1H)-yl)chroman-3-yl)-6-methylthieno[2,3-b]pyridine-2-carboxamide], the IC50 is above 2000 nM. For `Nc1c(C(=O)N[C@H]2COc3cc(N4CCNCC4)ccc3C2)sc2nc(C3CC3)sc12` [Example 45] the value was 50 to 200 nM; for `Cc1nc2sc(C(=O)N[C@@H]3COc4cc(N5CC6CCC(C5)N6)c(F)cc4C3)c(N)c2s1` [Example 46, N-((3S)-7-(3 8-diazabicyclo[3.2.1]octan-3-yl)-6-fluorochroman-3-yl)-6-amino-2-methylthieno[2,3-d]thiazole-5-carboxamide], 1 to 50 nM; for `Cc1nc2sc(C(=O)N[C@H]3COc4cc(N5CC6CCC(C5)N6)c(F)cc4C3)c(N)c2s1` [Example 47, N-((3R)-7-(3,8-diazabicyclo[3.2.1]octan-3-yl)-6-fluorochroman-3-yl)-6-amino-2-methylthieno[2,3-d]thiazole-5-carboxamide], 200 to 2000 nM. `Cc1ccc2c(N)c(C(=O)N[C@H]3COc4cc(N5CCNCC5)cc(Cl)c4C3)sc2n1` [Example 48, (R)-3-amino-N-(5-chloro-7-(piperazin-1-yl)chroman-3-yl)-6-methylthieno[2,3-b]pyridine-2-carboxamide]: the IC50 lay in the range of 1 to 50 nM. For `Cc1ccc2c(N)c(C(=O)N[C@@H]3COc4cc(N5CCNCC5)cc(Cl)c4C3)sc2n1` [Example 49, (S)-3-amino-N-(5-chloro-7-(piperazin-1-yl)chroman-3-yl)-6-methylthieno[2,3-b]pyridine-2-carboxamide] the value was 200 to 2000 nM; for `O=C(N[C@H]1COc2cc(N3CC4CCC(C3)N4)ccc2C1)c1cnc2c(c1)CCCN2` [Example 50, N-((3R)-7-(3,8-diazabicyclo[3.2.1]octan-3-yl)chroman-3-yl)-5,6,7,8-tetrahydro-1,8-naphthyridine-3-carboxamide], 50 to 200 nM. Take `O=C(N[C@H]1COc2cc(N3CC4CCC(C3)N4)ccc2C1)c1cnc2c(c1)CCCO2` [Example 51, N-((3R)-7-(3,8-diazabicyclo[3.2.1]octan-3-yl)chroman-3-yl)-3,4-dihydro-2H-pyrano[2,3-b]pyridine-6-carboxamide]: the IC50 lay within 200 to 2000 nM. For `O=C(N[C@H]1COc2cc(N3CCNCC3)ccc2C1)c1ccc(NCc2ccccc2)nc1` [Example 52, (R)-6-(benzylamino)-N-(7-(piperazin-1-yl)chroman-3-yl)nicotinamide] the value was 200 to 2000 nM; for `C[C@H](Nc1ccc(C(=O)N[C@H]2COc3cc(N4CCNCC4)ccc3C2)cn1)c1ccccc1` [Example 53, 6-(((S)-1-phenylethyl)amino)-N-((R)-7-(piperazin-1-yl)chroman-3-yl)nicotinamide], above 2000 nM. Regarding `C[C@@H](Nc1ccc(C(=O)N[C@H]2COc3cc(N4CCNCC4)ccc3C2)cn1)c1ccccc1` [Example 54, 6-(((R)-1-phenylethyl)amino)-N-((R)-7-(piperazin-1-yl)chroman-3-yl)nicotinamide], the IC50 was above 2000 nM. Then `Cc1ccc2c(N)c(C(=O)N[C@H]3COc4c(F)c(N5CCNCC5)cc(F)c4C3)sc2n1` [Example 55, (R)-3-amino-N-(5,8-difluoro-7-(piperazin-1-yl)chroman-3-yl)-6-methylthieno[2,3-b]pyridine-2-carboxamide], with 1 to 50 nM; and `Cc1nc2sc(C(=O)N[C@H]3COc4c(F)c(N5CCNCC5)cc(F)c4C3)c(N)c2s1` [Example 56, (R)-6-amino-N-(5,8-difluoro-7-(piperazin-1-yl)chroman-3-yl)-2-methylthieno[2,3-d]thiazole-5-carboxamide], with 1 to 50 nM.
